In paper PMC4692482, “Structure and Stability of the Dimeric Triosephosphate Isomerase from the Thermophilic Archaeon Thermoplasma acidophilum” (PLoS ONE, 2015):

Molecular target: T1, TaTPI (Thermoplasma acidophilum, UniProt Q9HLB6)
T1 construct: gene tpiA; full length, 216 residues, C-terminal His6-tag (pET-28a(+)), expressed in E. coli Rosetta 2(DE3)pLysS; 24,671 Da monomer; homodimer
Assay: X-ray crystallography ([…] A)
Assay type: binding
Conditions: 20 mM G3P incubated with apo protein 4 h at 4 C; pH 8.5; active site (Lys9, His89, Glu137); substrate analogue

T1 sequence (Q9HLB6 whole entry): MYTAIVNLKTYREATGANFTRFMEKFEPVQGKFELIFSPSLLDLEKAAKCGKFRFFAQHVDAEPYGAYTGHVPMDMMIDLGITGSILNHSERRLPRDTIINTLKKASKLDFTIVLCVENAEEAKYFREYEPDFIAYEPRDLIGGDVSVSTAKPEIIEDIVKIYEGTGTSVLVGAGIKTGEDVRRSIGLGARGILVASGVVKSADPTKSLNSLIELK

## O=P(O)(O)OC[C@H](O)CO [G3P, glycerol-3-phosphate]
  X-ray crystallography (2.17 A): G3P is well positioned at the active site of TaTPI with functionally conserved residues
